In one experiment the test system is pERK in AGS cells. In words: ERK phosphorylation cell assay, AGS. It counts as cell-based. As to conditions: 3 hours compound incubation, read-out: pERK AGS_IC50. The procedure:
(§1) • Day 1: AGS cells were seeded into a 384-well cell culture plate and incubated overnight at 37° C. with 5% CO2 in a cell culture incubator. • Day 2: Compounds were added to the plate using an Echo550 liquid handler, followed by incubation at 37° C. with 5% CO2 in a cell culture incubator for 3 hours. Subsequently, the cells were fixed with paraformaldehyde, permeabilized with methanol, and blocked with blocking buffer. A primary antibody mixture (rabbit anti-pERK, mouse anti-GAPDH) was added, and the plate was incubated overnight at 4° C. • Day 3: The primary antibodies were removed, and a secondary antibody mixture (goat anti-rabbit 800CW, goat anti-mouse 680RD) was added. The plate was incubated at room temperature in the dark. After three washes with PBST, the plate was inverted and centrifuged for 1 minute. Fluorescence signal values were read using an Odyssey CLx imaging system.
(§2) [formula] • Negative control: DMSO • Positive control: 10 μM Reference • Fitted using XLFit 5.0 with the following parameters:
(§3) [formula] • X: Log of compound concentration • Y: Mean relative expression levels of p-ERK across replicates

The test system of another experiment is pERK in AsPC-1 cells. In words: ERK phosphorylation cell assay, AsPC-1. The class given is cell-based. The conditions noted are these: read-out: pERK AsPC-1_IC50. The procedure:
[Worded in the source for another cell line; this cell line is reported under the same test.] as §1, §2, §3

The mark [1] stands for this setting: Homo sapiens, ASPC1, AsPC-1 cells.

Where two headings read alike, the source gives them in different places. A value given as a limit tells only on which side of the number the result lay.

Take “13-((2,2-difluoro-6-methylenetetrahydro-1H-pyrazin-7a(5H)-yl)methoxy)-3,15-difluoro-11-((R)-3-hydroxy-3-methylpiperidin-1-yl)-4,5,6,7,8,9-hexahydronaphtho[1′,8′:4,5,6][1]azacycloundecano[2,3-g]quinazolin-17-ol [Example 38]”: the IC50 with pERK in AGS cells and in the experiment on pERK in AsPC-1 cells (AsPC-1 cells) was above 10 µM throughout.
Consider `C[C@@]1(O)CCCN(c2nc(OCC34CCCN3CCC4)nc3c(F)c4c(cc23)NCCCCCc2c(F)ccc3cc(O)cc-4c23)C1` (single isomer, unassigned) [Example 21B], for which the IC50 was 0.517 µM in the experiment with pERK in AGS cells and 4.62 µM with pERK in AsPC-1 cells (AsPC-1 cells).
As for `C[C@@]1(O)CCCN(c2nc(OCC34CCCN3C[C@]3(C4)CC3(F)F)nc3c(F)c4c(cc23)NCCCCCc2c(F)ccc3cc(O)cc-4c23)C1` (single isomer, unassigned) [Example 24B], the figures for the IC50 in the experiment on pERK in AGS cells and with pERK in AsPC-1 cells (AsPC-1 cells) were 1.92 µM and 7.18 µM, respectively.
With `C=C1CN2CCC[C@@]2(COc2nc(N3CCC[C@@](C)(O)C3)c3cc4c(c(F)c3n2)-c2cc(O)cc3ccc(F)c(c23)CCOCCN4)C1` (single isomer, unassigned) [Example 42C], the IC50 in the experiment on pERK in AsPC-1 cells (AsPC-1 cells) was determined as 0.101 µM.
`C[C@@]1(O)CCCN(c2nc(OC[C@@]34CCCN3C[C@H](F)C4)nc3c(F)c4c(cc23)NCCOCCc2c(F)ccc3cccc-4c23)C1` (single isomer, unassigned) [Example 52A]: the IC50 in the experiment with pERK in AGS cells is 2 µM; in the experiment with pERK in AsPC-1 cells (AsPC-1 cells) it was 3.1 µM.
Regarding `C=C1CN2CC(F)(F)CC2(COc2nc(N3CCC[C@@](C)(O)C3)c3cc4c(c(F)c3n2)-c2cc(O)cc3ccc(F)c(c23)CCCCCN4)C1` (single isomer, unassigned) [Example 57A], the IC50 in the experiment on pERK in AGS cells was 1.14 µM; in the experiment with pERK in AsPC-1 cells (setting [1]) it was above 10 µM.
`C=C1CN2CC(F)(F)CC2(COc2nc(N3CCC[C@@](C)(O)C3)c3cc4c(c(F)c3n2)-c2cc(O)cc3ccc(F)c(c23)CCCCCN4)C1` (single isomer, unassigned) [Example 57B]: the IC50 with pERK in AGS cells and with pERK in AsPC-1 cells (AsPC-1 cells) was above 10 µM each time.
On to `O=C1CCCc2c(F)ccc3cc(O)cc(c23)-c2c(cc3c(N4CC5CCC(C4)N5)nc(OC[C@@]45CCCN4C[C@H](F)C5)nc3c2F)N1` [Example 1, 10-((1R,5S)-3,8-Diazabicyclo[3.2.1]octan-3-yl)-3,14-difluoro-12-(((2R,7aS)-2-fluorotetrahydro-1H-pyrazin-7a(5H)-yl)methoxy)-16-hydroxy-5,6-dihydro-4H-naphtho[1′,8′:4,5,6]acridin[2,3-g]quinazolin-7(8H)-one], for which the IC50 with pERK in AGS cells (Homo sapiens, AGS, 3 h) was 2.15 µM; in the experiment on pERK in AsPC-1 cells (setting [1]), 2.45 µM.
`Oc1cc2c3c(c(F)ccc3c1)CCCCNc1cc3c(N4CC5CCC(C4)N5)nc(OC[C@@]45CCCN4C[C@H](F)C5)nc3c(F)c1-2` [Example 2, 10-((1R,5S)-3,8-Diazabicyclo[3.2.1]octan-3-yl)-3,14-difluoro-12-(((2R,7aS)-2-fluorotetrahydro-1H-pyrazin-7a(5H)-yl)methoxy)-5,6,7,8-tetrahydro-4H-naphtho[1′,8′:4,5,6]acridin[2,3-g]quinazolin-16-ol]: the IC50 was determined as 0.154 µM in the experiment on pERK in AGS cells (Homo sapiens, AGS, 3 h) and 0.71 µM with pERK in AsPC-1 cells (setting [1]).
With `O=C1CCCCCc2c(F)ccc3cc(O)cc(c23)-c2c(cc3c(N4CC5CCC(C4)N5)nc(OC[C@@]45CCCN4C[C@H](F)C5)nc3c2F)N1` [Example 9A, 12-((1R,5S)-3,8-diazabicyclo[3.2.1]octan-3-yl)-3,16-difluoro-14-(((2R,7aS)-2-fluorotetrahydro-1H-pyrazin-7a(5H)-yl)methoxy)-18-hydroxy-5,6,7,8-tetrahydro-4H-naphtho[1′,8′:4,5,6][1]azacyclododecino[2,3-g]quinazolin-9(10H)-one], the IC50 in the experiment with pERK in AGS cells was 0.687 µM; in the experiment on pERK in AsPC-1 cells (AsPC-1 cells), 1.96 µM.
On to `O=C1CCCCCCCCc2c(F)ccc3cc(O)cc(c23)-c2c(cc3c(N4CC5CCC(C4)N5)nc(OCC45CCCN4CC(F)C5)nc3c2F)N1` [Example 10, 15-((1R,5S)-3,8-diazabicyclo[3.2.1]octan-3-yl)-3,19-difluoro-17-(((2R,7aS)-2-fluorotetrahydro-1H-pyrazin-7a(5H)-yl)methoxy)-21-hydroxy-4,5,6,7,8,9,10,11-octahydronaphtho[1′,8′:4,5,6][1]azacyclopentadecano[2,3-g]quinazolin-12(13H)-one], for which the IC50 in the experiment on pERK in AGS cells and in the experiment on pERK in AsPC-1 cells (AsPC-1 cells) was above 10 µM in each case.
As for `O=C1NCCCc2c(F)ccc3cc(O)cc(c23)-c2c1cc1c(N3CC4CCC(C3)N4)nc(OC[C@@]34CCCN3C[C@H](F)C4)nc1c2F` [Example 12, 10-((1R,5S)-3,8-diazabicyclo[3.2.1]oct-3-yl)-3,14-difluoro-12-(((2R,7aS)-2-fluorotetrahydro-1H-pyrazin-7a(5H)-yl)methoxy)-16-hydroxy-4,5,6,7-tetrahydro-8H-naphtho[1′,8′:5,6,7]acredo [3,4-g]quinazolin-8-one], the IC50 is 5.43 µM with pERK in AGS cells (Homo sapiens, AGS, 3 h) and above 10 µM in the experiment on pERK in AsPC-1 cells (setting [1]).
For the molecule `CCN1CCCc2c(F)ccc3cc(O)cc(c23)-c2c(cc3c(N4CC5CCC(C4)N5)nc(OC[C@@]45CCCN4C[C@H](F)C5)nc3c2F)C1=O` [Example 13, 10-((1R,5S)-3,8-diazabicyclo[3.2.1]oct-3-yl)-7-ethyl-3,14-difluoro-12-(((2R,7aS)-2-fluorotetrahydro-1H-pyrazin-7a(5H)-yl)methoxy)-16-hydroxy-4,5,6,7-tetrahydro-8H-naphtho[1′,8′:5,6,7]acrylo[3,4-g]quinazolin-8-one], the IC50 in the experiment with pERK in AGS cells (Homo sapiens, AGS, 3 h) is 3.95 µM; in the experiment with pERK in AsPC-1 cells (setting [1]), 8.04 µM.
On to `O=C1NCCCCCc2c(F)ccc3cc(O)cc(c23)-c2c1cc1c(N3CC4CCC(C3)N4)nc(OC[C@@]34CCCN3C[C@H](F)C4)nc1c2F` [Example 14, 12-((1R,5S)-3,8-diazabicyclo[3.2.1]oct-3-yl)-3,16-difluoro-14-(((2R,7aS)-2-fluorotetrahydro-1H-pyrazin-7a(5H)-yl)methoxy)-18-hydroxy-4,5,6,7,8,9-hexahydro-10H-naphtho[1′,8′:5,6,7][1]azacyclododecano[3,4-g]quinazolin-10-one], for which the IC50 is 2.77 µM in the experiment on pERK in AGS cells (Homo sapiens, AGS, 3 h) and 3.84 µM in the experiment on pERK in AsPC-1 cells (setting [1]).
Consider `O=C1CCCc2c(F)ccc3cc(O)cc(c23)-c2c(cc3c(N4CC5CCC(C4)N5)nc(OCC(F)(F)F)nc3c2F)N1` [Example 15, 10-((1R,5S)-3,8-diazabicyclo[3.2.1]octan-3-yl)-3,14-difluoro-16-hydroxy-12-(2,2,2-trifluoroethoxy)-5,6-dihydro-4H-naphtho[1′,8′:4,5,6]azacycloundecino[2,3-g]quinazolin-7(8H)-one], for which, in the experiment with pERK in AGS cells (Homo sapiens, AGS, 3 h), the IC50 is above 10 µM.
In the case of `C[C@@]1(O)CCCN(c2nc(OCC(F)(F)F)nc3c(F)c4c(cc23)NCCCCCc2c(F)ccc3cc(O)cc-4c23)C1` [Example 17A, (R)-3,15-difluoro-11-(3-hydroxy-3-methylpiperidin-1-yl)-13-(2,2,2-trifluoroethoxy)-4,5,6,7,8,9-hexahydro-naphtho[1′,8′:4,5,6111]azacycloundecino[2,3-g]quinazoline-17-ol], the IC50 is 5.27 µM in the experiment on pERK in AGS cells (Homo sapiens, AGS, 3 h) and above 10 µM in the experiment on pERK in AsPC-1 cells (setting [1]).
As to `CC1(O)CCCN(c2nc(OCC(F)(F)F)nc3c(F)c4c(cc23)NCCCCCc2c(F)ccc3cc(O)cc-4c23)C1` [Example 17B, (R)-3,15-difluoro-11-(3-hydroxy-3-methylpiperidin-1-yl)-13-(2,2,2-trifluoroethoxy)-4,5,6,7,8,9-hexahydro-naphtho[1′,8′:4,5,6111]azacycloundecino[2,3-g]quinazoline-17-ol], the IC50 in the experiment on pERK in AGS cells and in the experiment on pERK in AsPC-1 cells (AsPC-1 cells) was above 10 µM in each case.

The record behind these values is US20260049089A1, “KRAS INHIBITOR COMPOUND” (SHANGHAI APEIRON THERAPEUTICS COMPANY LIMITED, priority 2022, published 2026).
